Measurements: patent publication EP1295874A2, “Retroviral protease inhibiting compounds” (Abbott Laboratories, priority 1995, dated 1997)
Like-named read-outs stand apart in the source and are kept apart here.

Assays:
[1] = 50% lethal concentration in uninfected MT4 cells (MTT); type: cell-based; settings: human, read-out: LC50
Text: (§1) The anti-HIV activity of the compound of the invention can be determined in MT4 cells according to the following procedure. MT4 cells were infected with cell-free supernatant of HIVIIIB (previously frozen with known 50% tissue culture infectious dose (TCID50) at 0.003 multiplicity of infection (MOI) for one hour. After one hour infection, cells were washed twice to remove residual viruses, resuspended in culture media and seeded into 96-well tissue culture plates at 1x10^4 cells per well with various half-log dilutions of compounds. Uninfected cells are included as toxicity and cell controls. RPMI 1640 media (Gibco ) with 10% fetal bovine serum were used as culture media. Various concentrations of human serum (Sigma) 50%, 25% and 12.5% were added to culture media resulting in final concentration of 60%, 35% and 22.5% total serum. All assay plates were incubated in 37 deg. cent. incubator for 5 days. MTT (sigma, 5 mg/ml stock in PBS) was added to all wells at 25 ul per well, incubate for 4 hours. 20%SDS with 0.02 N HCl in water was added at 50 ul per well to lyse cellls. Plates incubated overnight for complete lyses were read on a microtitre plate reader at 570/650 nm wavelengths to determine cell optical density (O.D.). Raw data were analysed for percent inhibition by the following formula: (O.D. test well - O.D. virus control)/(O.D. cell control -O.D. virus control)x100 [formula] The 50% effective concentration (EC50) was calculated by the median effect equation (Chou, 1975,Proc. Int. Cong. Pharmacol. 6th p. 619) to determine the efficacy of compound. The 50% lethal concentration (LC50) was calculated using uninfected MT4 cells.
(§2) Under these conditions, the following data were obtained (n = 4 duplicate determinations: Table 2

HIVIIIB = assay: Antiviral activity (anti-HIV activity) in MT4 cells, MTT readout; type: cell-based; settings: Human immunodeficiency virus 1, MT4, 120 h, read-out: IC50 (µM, 0% plasma)
Text: as §1, §2

Passaged HIV-1 = assay: Phenotypic susceptibility of in vitro passaged HIV-1 to the compound of Example 2B (MTT colorimetric assay); type: cell-based
[2] = tested on: Ritonavir-Resistant Mutant HIV Clones; assay: microbe, parasite or virus in culture; type: cell-based
HIV protease = molecular target: T1, HIV protease (Human immunodeficiency virus type 1 group M subtype B, UniProt P04585); assay: Fluorogenic Assay for Screening Inhibitors of HIV Protease; type: biochemical; settings: Inhibitor Concentration 0.5 nanomolar; read-out: Percent Inhibition
T1 construct: HIV protease consists of two identical subunits, each of which has 99 amino acid residues
Description: The inhibitory potency of the compound of the invention can be determined by the following method.
The compound of the invention is dissolved in DMSO and a small aliquot further diluted with DMSO to 100 times the final concentration desired for testing. The reaction is carried out in a 6 X 50 mm tube in a total volume of 300 microliters. The final concentrations of the components in the reaction buffer are: 125 mM sodium acetate, 1 M sodium chloride, 5 mM dithiothreitol, 0.5 mg/ml bovine serum albumin, 1.3 µM fluorogenic substrate, 2% (v/v) dimethylsulfoxide, pH 4.5. After addition of inhibitor, the reaction mixture is placed in the fluorometer cell holder and incubated at 30°C for several minutes. The reaction is initiated by the addition of a small aliquot of cold HIV protease. The fluorescence intensity (excitation 340 nm, emmision 490 nM) is recorded as a function of time. The reaction rate is determined for the first six to eight minutes. The observed rate is directly proportional to the moles of substrate cleaved per unit time. The percent inhibition is 100 X (1 - (rate in presence of inhibitor)/(rate in absence of inhibitor)).
Fluorogenic substrate: Dabcyl-Gaba-Ser-Gln-Asn-Tyr-Pro-lle-Val-Gln-EDANS wherein DABCYL = 4-(4-dimethylamino-phenyl)azobenzoic acid, Gaba = γ-aminobutyric acid, and EDANS = 5-((2-aminoethyl)amino)-naphthalene-1-sulfonic acid.

[3] = tested on: Ritonavir-Resistant HIV from Patients; assay: microbe, parasite or virus in culture; type: cell-based
[4] = tested on: HIV Selected In Vitro by the Compound of Example 2B; assay: microbe, parasite or virus in culture; type: cell-based

## Cc1cccc(C)c1OCC(=O)N[C@@H](Cc1ccccc1)[C@@H](O)C[C@H](Cc1ccccc1)NC(=O)[C@H](C(C)C)N1CCCNC1=O [Example 2B, (2S, 3S, 5S)-2-(2,6-Dimethylphenoxyacetyl) amino-3-hydroxy-5-[2S-(1-tetrahydro-pyrimid-2-onyl)-3-methylbutanoyl] amino-1,6-diphenylhexane]
[1]
  CC50 at 120 h: 17800 nM
HIVIIIB
  IC50: 0.016 µM
Passaged HIV-1; Human immunodeficiency virus 1, 384 h, read-out: The compound of Example 2B EC50 (µM), Virus P2 (selected at 0.02 µM, 16 days in culture)
  EC50: 0.025 µM
Passaged HIV-1; Human immunodeficiency virus 1, NL43, read-out: The compound of Example 2B EC50 (µM), Virus NL4-3
  EC50: 0.028 µM
Passaged HIV-1; Human immunodeficiency virus 1, read-out: The compound of Example 2B EC50 (µM), Virus P6 (selected at 0.12 µM, 58 days in culture)
  EC50: 0.149 µM
Passaged HIV-1; Human immunodeficiency virus 1, read-out: The compound of Example 2B EC50 (µM), Virus P7 (selected at 0.15 µM, 65 days in culture)
  EC50: 0.201 µM
Passaged HIV-1; Human immunodeficiency virus 1, read-out: The compound of Example 2B EC50 (µM), Virus P8 (selected at 0.21 µM, 75 days in culture)
  EC50: 0.295 µM
Passaged HIV-1; Human immunodeficiency virus 1, read-out: The compound of Example 2B EC50 (µM), Virus P9 (selected at 0.30 µM, 82 days in culture)
  EC50: 0.333 µM
Passaged HIV-1; Human immunodeficiency virus 1, read-out: The compound of Example 2B EC50 (µM), Virus P10 (selected at 0.30 µM, 93 days in culture)
  EC50: 0.464 µM
Passaged HIV-1; Human immunodeficiency virus 1, read-out: The compound of Example 2B EC50 (µM), Virus P11 (selected at 0.42 µM, 100 days in culture)
  EC50: 0.346 µM
Passaged HIV-1; Human immunodeficiency virus 1, read-out: The compound of Example 2B EC50 (µM), Virus P12 (selected at 0.62 µM, 107 days in culture)
  EC50: 0.291 µM
Passaged HIV-1; Human immunodeficiency virus 1, read-out: The compound of Example 2B EC50 (µM), Virus P13 (selected at 0.80 µM, 114 days in culture)
  EC50: 1 µM
Passaged HIV-1; Human immunodeficiency virus 1, read-out: The compound of Example 2B EC50 (µM), Virus P14 (selected at 1.10 µM, 121 days in culture)
  EC50: 1.11 µM
Passaged HIV-1; Human immunodeficiency virus 1, read-out: The compound of Example 2B EC50 (µM), Virus P15 (selected at 1.50 µM, 128 days in culture)
  EC50: 1.34 µM
Passaged HIV-1; Human immunodeficiency virus 1, read-out: The compound of Example 2B EC50 (µM), Virus P16 (selected at 2.00 µM, 135 days in culture)
  EC50: 1.43 µM
[2]; Human immunodeficiency virus 1, HXB2, Virus Clone Wild Type (HXB2), 0% Human Serum
  EC50: 12 nM
[2]; Human immunodeficiency virus 1, HXB2, Virus Clone Wild Type (HXB2), 50% Human Serum
  EC50: 51 nM
[2]; Human immunodeficiency virus 1, Virus Clone E35D, M36I, I54V, A71V, V82T, 0% Human Serum
  EC50: 83 nM
[2]; Human immunodeficiency virus 1, Virus Clone E35D, M36I, I54V, A71V, V82T, 50% Human Serum
  EC50: 691 nM
[2]; Human immunodeficiency virus 1, Virus Clone G48V, 0% Human Serum
  EC50: 8 nM
[2]; Human immunodeficiency virus 1, Virus Clone G48V, 50% Human Serum
  EC50: 156 nM
[2]; Human immunodeficiency virus 1, Virus Clone I54V, V82T, 0% Human Serum
  EC50: 213 nM
[2]; Human immunodeficiency virus 1, Virus Clone I54V, V82T, 50% Human Serum
  EC50: 1150 nM
[2]; Human immunodeficiency virus 1, Virus Clone I84V, 0% Human Serum
  EC50: 20 nM
[2]; Human immunodeficiency virus 1, Virus Clone I84V, 50% Human Serum
  EC50: 170 nM
[2]; Human immunodeficiency virus 1, Virus Clone K20R, E35D, M36I, I54V, A71V, V82T, 0% Human Serum
  EC50: 93 nM
[2]; Human immunodeficiency virus 1, Virus Clone K20R, E35D, M36I, I54V, A71V, V82T, 50% Human Serum
  EC50: 376 nM
[2]; Human immunodeficiency virus 1, Virus Clone L90M, 0% Human Serum
  EC50: 16 nM
[2]; Human immunodeficiency virus 1, Virus Clone L90M, 50% Human Serum
  EC50: 180 nM
[2]; Human immunodeficiency virus 1, Virus Clone V82A, 0% Human Serum
  EC50: 33 nM
[2]; Human immunodeficiency virus 1, Virus Clone V82A, 50% Human Serum
  EC50: 268 nM
[2]; Human immunodeficiency virus 1, Virus Clone V82F, 0% Human Serum
  EC50: 26 nM
[2]; Human immunodeficiency virus 1, Virus Clone V82F, 50% Human Serum
  EC50: 147 nM
[2]; Human immunodeficiency virus 1, Virus Clone V82S, 0% Human Serum
  EC50: 26 nM
[2]; Human immunodeficiency virus 1, Virus Clone V82S, 50% Human Serum
  EC50: 314 nM
[2]; Human immunodeficiency virus 1, Virus Clone V82T, 50% Human Serum
  EC50: 147 nM
[2]; Human immunodeficiency virus 1, Virus Clone Wild Type (pNL4-3), 0% Human Serum
  EC50: 22 nM
[2]; Human immunodeficiency virus 1, Virus Clone Wild Type (pNL4-3), 50% Human Serum
  EC50: 126 nM
HIV protease
  inhibition at 0.0005 µM: 93.2%
[3]; Human immunodeficiency virus 1, 24 h, Patient No. 313, Day 1, baseline
  EC50: 4 nM
[3]; Human immunodeficiency virus 1, 24 h, Patient No. 410, Day 1, baseline
  EC50: 6 nM
[3]; Human immunodeficiency virus 1, 504 h, Patient No. 104, Day 21, V82A
  EC50: 9 nM
[3]; Human immunodeficiency virus 1, 672 h, Patient No. 104, Day 28, V82T
  EC50: 13 nM
[3]; Human immunodeficiency virus 1, Patient No. 104, Day -1, baseline
  EC50: 8 nM
[3]; Human immunodeficiency virus 1, Patient No. 129, Day 84, M36I, I54V, A71V, V82T
  EC50: 33 nM
[3]; Human immunodeficiency virus 1, Patient No. 129, Day 140, K20K/R, M36M/I, I54V, A71A/V, V82T
  EC50: 29 nM
[3]; Human immunodeficiency virus 1, Patient No. 129, Day -1, baseline
  EC50: 5 nM
[3]; Human immunodeficiency virus 1, Patient No. 131, Day 88, M36I, 154V>I, V82A
  EC50: 15 nM
[3]; Human immunodeficiency virus 1, Patient No. 131, Day 200, K20K/R, M36I, I54I/V, V82A
  EC50: 52 nM
[3]; Human immunodeficiency virus 1, Patient No. 131, Day -28, baseline
  EC50: 4 nM
[3]; Human immunodeficiency virus 1, Patient No. 224, Day 110, L33L/F, V82T/S
  EC50: 12 nM
[3]; Human immunodeficiency virus 1, Patient No. 224, Day 190, K20K/N/R, L33L/F, M36M/I, I54V/M, V82S
  EC50: 52 nM
[3]; Human immunodeficiency virus 1, Patient No. 224, Day -6, baseline
  EC50: 6 nM
[3]; Human immunodeficiency virus 1, Patient No. 235, Day 167, I54I/V, A71V, V82A. L90L/M
  EC50: 6 nM
[3]; Human immunodeficiency virus 1, Patient No. 235, Day -1, baseline
  EC50: 6 nM
[3]; Human immunodeficiency virus 1, Patient No. 313, Day 57, M36M/I, V82F
  EC50: 11 nM
[3]; Human immunodeficiency virus 1, Patient No. 313, Day 85, M36M/I, I54I/V, V82S/F/A/T
  EC50: 25 nM
[3]; Human immunodeficiency virus 1, Patient No. 410, Day 57, M36M/I, I54I/V, V82A
  EC50: 33 nM
[3]; Human immunodeficiency virus 1, Patient No. 410, Day 85, M36I, I54V, V82A
  EC50: 97 nM
[4]; Human immunodeficiency virus 1, NL43, Virus NL4-3
  EC50: 28 nM
[4]; Human immunodeficiency virus 1, Virus P7
  EC50: 116 nM
[4]; Human immunodeficiency virus 1, Virus P11
  EC50: 349 nM
[4]; Human immunodeficiency virus 1, Virus P14
  EC50: 1280 nM
[4]; Human immunodeficiency virus 1, Virus P17
  EC50: 9480 nM
